Holding throughout (assay type): cell-based
Series [1] addresses T1, Coiled-coil domain-containing protein 6/Tyrosine-protein kinase receptor RET (Homo sapiens) (UniProt P07949+Q16204). Briefly: Inhibition of CCDC6-RET fusion protein (unknown origin) expressed in mouse BaF3 cells assessed as reduction in cell proliferation measured after 48 hrs by MTS assay.
Series [2] has as its target T2, Kinesin-1 heavy chain/ Tyrosine-protein kinase receptor RET (Homo sapiens) (UniProt P07949+P33176). The experiment in a line: Inhibition of KIF5B-RET fusion protein (unknown origin) expressed in mouse BaF3 cells assessed as reduction in cell proliferation measured after 48 hrs by MTS assay.
A further series concerns BaF3. The experiment in a line: Inhibition of CCDC6-RET V804M mutant fusion protein (unknown origin) expressed in mouse BaF3 cells assessed as reduction in cell proliferation measured after 48 hrs by MTS assay. As to conditions: Homo sapiens.
In series [3] the test system is Kinesin-1 heavy chain/ Tyrosine-protein kinase receptor RET (Homo sapiens), P07949+P33176 [V804M]. The experiment in a line: Inhibition of KIF5B-RET V804M mutant fusion protein (unknown origin) expressed in mouse BaF3 cells assessed as reduction in cell proliferation measured after 48 hrs by MTS assay.
The nature of series [4]: Cytotoxicity against mouse BaF3 cells assessed as reduction in cell proliferation measured after 48 hrs by MTS assay.
Series [5] concerns the target T1, Coiled-coil domain-containing protein 6/Tyrosine-protein kinase receptor RET (Homo sapiens). The experiment in a line: Inhibition of CCDC6-RET fusion protein (unknown origin) expressed in mouse BaF3 cells assessed as cell survival at 2 uM measured after 48 hrs by MTS assay relative to control.
The target in series [6] is T2, Kinesin-1 heavy chain/ Tyrosine-protein kinase receptor RET (Homo sapiens). Briefly: Inhibition of KIF5B-RET fusion protein (unknown origin) expressed in mouse BaF3 cells assessed as cell survival at 2 uM measured after 48 hrs by MTS assay relative to control.

Each structure is given as a SMILES string. Some results are limits rather than exact numbers.

T1 sequence (P07949 29-1114 limits assumed): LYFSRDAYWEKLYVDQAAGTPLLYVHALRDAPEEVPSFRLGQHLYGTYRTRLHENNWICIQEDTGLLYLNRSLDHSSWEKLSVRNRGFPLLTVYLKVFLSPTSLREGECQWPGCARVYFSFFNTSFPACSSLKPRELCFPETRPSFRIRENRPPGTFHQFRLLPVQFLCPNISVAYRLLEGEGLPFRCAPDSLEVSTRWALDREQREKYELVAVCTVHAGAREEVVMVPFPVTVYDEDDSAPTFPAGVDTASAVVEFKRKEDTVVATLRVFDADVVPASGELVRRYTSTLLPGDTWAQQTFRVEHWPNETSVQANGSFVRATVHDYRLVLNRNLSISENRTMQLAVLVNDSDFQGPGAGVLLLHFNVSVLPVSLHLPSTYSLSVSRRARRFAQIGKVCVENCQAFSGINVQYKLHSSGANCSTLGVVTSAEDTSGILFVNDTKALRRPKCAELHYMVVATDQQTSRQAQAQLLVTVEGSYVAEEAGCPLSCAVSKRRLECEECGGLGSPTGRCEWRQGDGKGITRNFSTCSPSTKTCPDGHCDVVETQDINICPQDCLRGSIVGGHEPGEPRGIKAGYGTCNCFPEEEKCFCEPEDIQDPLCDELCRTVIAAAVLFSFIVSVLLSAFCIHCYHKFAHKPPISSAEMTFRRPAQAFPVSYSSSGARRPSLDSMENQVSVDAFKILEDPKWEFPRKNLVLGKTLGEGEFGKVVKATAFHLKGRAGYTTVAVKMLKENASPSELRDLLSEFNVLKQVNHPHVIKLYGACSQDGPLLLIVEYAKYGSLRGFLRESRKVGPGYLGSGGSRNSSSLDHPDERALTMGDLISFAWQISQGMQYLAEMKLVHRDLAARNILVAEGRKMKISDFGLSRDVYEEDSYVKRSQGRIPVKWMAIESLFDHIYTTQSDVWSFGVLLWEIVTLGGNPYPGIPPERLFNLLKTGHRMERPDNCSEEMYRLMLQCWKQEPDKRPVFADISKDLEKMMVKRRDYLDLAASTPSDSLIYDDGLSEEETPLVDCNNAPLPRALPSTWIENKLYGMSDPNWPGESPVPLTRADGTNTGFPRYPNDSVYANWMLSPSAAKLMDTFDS
T1 sequence (Q16204 2-474 partner limits assumed): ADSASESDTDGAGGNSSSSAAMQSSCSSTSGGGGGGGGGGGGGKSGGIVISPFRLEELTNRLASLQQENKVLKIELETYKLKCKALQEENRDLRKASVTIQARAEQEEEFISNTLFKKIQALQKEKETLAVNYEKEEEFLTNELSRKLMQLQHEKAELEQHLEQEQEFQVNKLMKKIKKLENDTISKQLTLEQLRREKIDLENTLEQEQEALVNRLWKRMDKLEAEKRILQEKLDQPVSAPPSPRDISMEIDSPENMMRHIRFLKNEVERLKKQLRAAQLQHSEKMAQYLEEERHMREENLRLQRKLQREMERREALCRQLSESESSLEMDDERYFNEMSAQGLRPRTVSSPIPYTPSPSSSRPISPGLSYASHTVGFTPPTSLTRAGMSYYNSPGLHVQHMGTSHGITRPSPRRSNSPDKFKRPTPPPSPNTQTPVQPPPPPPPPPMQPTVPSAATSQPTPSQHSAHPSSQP
T2 sequence (P07949 29-1114 limits assumed): as the sequence (P07949 29-1114 limits assumed) above
T2 sequence (P33176 2-963 partner limits assumed): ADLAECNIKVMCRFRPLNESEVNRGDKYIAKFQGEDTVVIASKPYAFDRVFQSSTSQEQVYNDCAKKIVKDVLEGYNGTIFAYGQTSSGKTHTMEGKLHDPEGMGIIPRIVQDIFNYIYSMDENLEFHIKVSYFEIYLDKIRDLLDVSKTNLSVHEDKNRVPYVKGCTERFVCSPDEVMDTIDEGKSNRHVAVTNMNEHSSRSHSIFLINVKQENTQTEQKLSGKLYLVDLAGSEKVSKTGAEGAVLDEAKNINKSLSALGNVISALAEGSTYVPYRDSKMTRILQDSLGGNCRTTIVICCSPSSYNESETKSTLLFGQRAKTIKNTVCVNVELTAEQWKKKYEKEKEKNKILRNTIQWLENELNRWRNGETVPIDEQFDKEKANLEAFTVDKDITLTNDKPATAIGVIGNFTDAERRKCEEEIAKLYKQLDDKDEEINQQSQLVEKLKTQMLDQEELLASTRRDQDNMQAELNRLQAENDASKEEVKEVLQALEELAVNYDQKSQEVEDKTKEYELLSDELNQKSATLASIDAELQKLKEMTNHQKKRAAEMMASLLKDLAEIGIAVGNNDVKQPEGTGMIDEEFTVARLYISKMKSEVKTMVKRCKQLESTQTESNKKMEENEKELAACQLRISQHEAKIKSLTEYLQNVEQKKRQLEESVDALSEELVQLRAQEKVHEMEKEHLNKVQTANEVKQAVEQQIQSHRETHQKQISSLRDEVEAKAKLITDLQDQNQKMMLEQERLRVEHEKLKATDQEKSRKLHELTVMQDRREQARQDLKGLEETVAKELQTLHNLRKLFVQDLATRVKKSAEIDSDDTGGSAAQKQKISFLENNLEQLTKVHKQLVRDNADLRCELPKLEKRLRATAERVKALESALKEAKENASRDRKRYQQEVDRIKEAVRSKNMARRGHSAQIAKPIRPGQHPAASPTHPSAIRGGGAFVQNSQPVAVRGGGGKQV

`Cc1ccc(-c2nc(Oc3cc(C(=O)Nc4ccc(CN5CCN(C)CC5)c(C(F)(F)F)c4)ccc3C)c3cnn(C)c3n2)cc1`: the GI50 in series [1] came out at 847 nM; in series [2] it was 152 nM.

For the compound `CO[C@]1(C(=O)N[C@@H](C)c2ccc(-n3cc(F)cn3)nc2)CC[C@H](c2nc(C)cc(Nc3cc(C)[nH]n3)n2)CC1` [PRALSETINIB], the GI50 (in series [1]; with BaF3; in series [3]; in series [2]) was < 4 nM throughout. Also, the GI50 at 48 h in series [4] came to 1270 nM.

`Cc1ccc(Oc2nc(-c3cccnc3)nc3c2cnn3C)cc1C(=O)Nc1ccc(CN2CCN(C)CC2)c(C(F)(F)F)c1`: the Survival amounted to 100% in series [5] and 87.5% in series [6].

Regarding `Cc1ccc(C(=O)Nc2ccc(CN3CCN(C)CC3)c(C(F)(F)F)c2)cc1Oc1nc(Nc2ccccc2)nc2c1cnn2C`, the results for the GI50 in series [1] and in series [2] were 123 nM and 70 nM, respectively.

In the case of `Cc1cn(-c2cc(NC(=O)c3ccc(C)c(Oc4nc(-c5cccnc5)nc5c4cnn5C)c3)cc(C(F)(F)F)c2)cn1`, the GI50 in series [1] and in series [2] was > 10000 nM throughout.

As to `Cc1ccc(C(=O)Nc2ccc(CN3CCN(C)CC3)c(C(F)(F)F)c2)cc1Oc1nc(-c2ccccc2)nc2c1cnn2C`, the GI50 in series [1] is 348 nM; in series [2], 98 nM.

Consider `CN1CCN(Cc2ccc(C(=O)Nc3cccc(Oc4nc(-c5ccncc5)nc5[nH]ncc45)c3)cc2C(F)(F)F)CC1`, for which the GI50 in series [1] came out at 79 nM; in series [2], 299 nM.

Regarding `Cc1ccc(C(=O)Nc2ccc(CN3CCN(C)CC3)c(C(F)(F)F)c2)cc1Oc1nc(-c2cccnc2)nc2c1cnn2C`, the GI50 came to 39 nM in series [1], 136 nM in the series with BaF3, 113 nM in series [3] and 35 nM in series [2]. Besides, in series [4], the GI50 at 48 h amounted to 1290 nM.

Consider `Cc1ccc(C(=O)Nc2ccc(CN3CCN(C)CC3)c(C(F)(F)F)c2)cc1Oc1nc(-c2ccncc2)nc2c1cnn2C(C)C`, for which the figures for the GI50 in series [1] and in series [2] were 1100 nM and 915 nM, respectively.

For `Cc1ccc(C(=O)Nc2ccc(CN3CCN(C)CC3)c(C(F)(F)F)c2)cc1Oc1nc(-c2cccc(O)c2)nc2c1cnn2C`, the GI50 in series [1] was determined as 178 nM; in the series with BaF3 it was 499 nM; in series [3], 274 nM; in series [2], 28 nM. Besides, the GI50 at 48 h in series [4] came to 2640 nM.

On to `Cc1ccc(C(=O)Nc2cc(CN3CCN(C)CC3)cc(C(F)(F)F)c2)cc1Oc1nc(-c2cccnc2)nc2c1cnn2C`, for which the GI50 in series [1] was 264 nM; in series [2], 482 nM.

In the case of `CN1CCN(Cc2ccc(NC(=O)c3cccc(Oc4nc(-c5ccncc5)nc5c4cnn5C)c3)cc2C(F)(F)F)CC1`, the Survival is 94.1% in series [5] and 74.9% in series [6].

For the compound `Cc1ccc(Oc2nc(-c3ccncc3)nc3c2cnn3C)cc1NC(=O)c1ccc(CN2CCN(C)CC2)c(C(F)(F)F)c1`, the GI50 in series [1] was 13 nM; in the series with BaF3 it was 4870 nM; in series [3] it was 4210 nM; in series [2], 6 nM. For the same compound, the 50% growth inhibitory concentration (GI50) at 48 h in series [4] was found to be 2780 nM.

On to `Cc1ccc(C(=O)Nc2ccc(CN3CCN(C)CC3)c(C(F)(F)F)c2)cc1Oc1nc(-c2ccc(Cl)cc2)nc2c1cnn2C`, for which the GI50 in series [1] turned out to be 696 nM; in series [2] it was 114 nM.

With `Cc1cn(-c2cc(NC(=O)c3ccc(C)c(Oc4nc(-c5ccncc5)nc5c4cnn5C)c3)cc(C(F)(F)F)c2)cn1`, the GI50 in series [1] was determined as 1570 nM; in series [2], 2620 nM.

With `Cc1ccc(C(=O)Nc2ccc(CN3CCN(C)CC3)c(C(F)(F)F)c2)cc1Oc1nc(-c2ccsc2)nc2c1cnn2C`, the GI50 in series [1] was found to be 449 nM; in the series on BaF3 it was 736 nM; in series [3], 564 nM; in series [2] it was 36 nM. For the same compound, the GI50 at 48 h in series [4] amounted to 5070 nM.

On to `Cc1ccc(C(=O)Nc2ccc(CN3CCN(C)CC3)c(C(F)(F)F)c2)cc1Oc1nc(-c2cccc(Cl)c2)nc2c1cnn2C`, for which the results for the GI50 in series [1] and in series [2] were 807 nM and 320 nM, respectively.

For `CN1CCN(Cc2ccc(C(=O)Nc3cc(Oc4nc(-c5ccncc5)nc5c4cnn5C)ccc3Cl)cc2C(F)(F)F)CC1`, the GI50 in series [1] was 16 nM; in the series with BaF3, > 10000 nM; in series [3], 8190 nM; in series [2], 114 nM. In addition, the GI50 at 48 h in series [4] was found to be 3400 nM.

For `Cc1ccc(NC(=O)c2ccc(CN3CCN(C)CC3)c(C(F)(F)F)c2)cc1Oc1nc(-c2cccnc2)nc2c1cnn2C`, the GI50 in series [1] is 477 nM; in series [2], 411 nM.

For `CN1CCN(Cc2ccc(C(=O)Nc3cccc(Oc4nc(-c5cccnc5)nc5c4cnn5C)c3)cc2C(F)(F)F)CC1`, the values for the GI50 in series [1] and in series [2] were 1110 nM and 953 nM, respectively.

For `CN1CCN(Cc2ccc(C(=O)Nc3cccc(Oc4nc(-c5cccnc5)nc5[nH]ncc45)c3)cc2C(F)(F)F)CC1`, the GI50 in series [1] came out at 342 nM; in series [2], 820 nM.

Take `CN1CCN(Cc2ccc(NC(=O)c3cccc(Oc4nc(-c5cccnc5)nc5c4cnn5C)c3)cc2C(F)(F)F)CC1`: the results for the Survival in series [5] and in series [6] were 65.5% and 56.5%, respectively.

`CN1CCN(Cc2ccc(NC(=O)c3cc(Oc4nc(-c5ccncc5)nc5c4cnn5C)ccc3Cl)cc2C(F)(F)F)CC1`: the GI50 is 108 nM in series [1] and 130 nM in series [2].

For `CCn1ncc2c(Oc3cc(C(=O)Nc4ccc(CN5CCN(C)CC5)c(C(F)(F)F)c4)ccc3C)nc(-c3ccncc3)nc21`, the GI50 in series [1] and in series [2] was > 10000 nM in each case.

As to `Cc1ccc(C(=O)Nc2ccc(CN3CCN(C)CC3)c(C(F)(F)F)c2)cc1Oc1nc(-c2ccncc2)nc2[nH]ncc12`, the GI50 in series [1] worked out at 73 nM; in series [2], 240 nM.

With `Cc1ccc(NC(=O)c2ccc(CN3CCN(C)CC3)c(C(F)(F)F)c2)cc1Oc1nc(-c2ccncc2)nc2c1cnn2C`, the GI50 in series [1] came out at 617 nM; in series [2], 469 nM.

`Cc1ccc(Oc2nc(-c3cccnc3)nc3[nH]ncc23)cc1NC(=O)c1ccc(CN2CCN(C)CC2)c(C(F)(F)F)c1`: the GI50 in series [1] turned out to be 2370 nM; in series [2], 3890 nM.

Regarding `CN1CCN(Cc2ccc(C(=O)Nc3cc(Oc4nc(-c5cccnc5)nc5c4cnn5C)ccc3Cl)cc2C(F)(F)F)CC1`, the GI50 in series [1] is 2070 nM; in series [2], 1390 nM.

Regarding `CN1CCN(Cc2ccc(C(=O)Nc3cc(Oc4nc(-c5ccncc5)nc5[nH]ncc45)ccc3Cl)cc2C(F)(F)F)CC1`, the GI50 in series [1] stood at 13 nM; in the series with BaF3 it was 7380 nM; in series [3] it was 6520 nM; in series [2] it was 22 nM. For the same compound, the GI50 at 48 h in series [4] came out at 1010 nM.

With `Cc1ccc(C(=O)Nc2cccc(C(F)(F)F)c2)cc1Oc1nc(-c2cccnc2)nc2c1cnn2C`, the values for the GI50 in series [1] and in series [2] were 1970 nM and 2240 nM, respectively.

For the compound `CN1CCN(Cc2ccc(C(=O)Nc3cccc(Oc4nc(-c5ccncc5)nc5c4cnn5C)c3)cc2C(F)(F)F)CC1`, the values for the GI50 in series [1] and in series [2] were 140 nM and 106 nM, respectively.

With `Cc1ccc(Oc2nc(-c3ccncc3)nc3[nH]ncc23)cc1NC(=O)c1ccc(CN2CCN(C)CC2)c(C(F)(F)F)c1`, the GI50 came out at 4 nM in series [1], 1890 nM in the series on BaF3, 757 nM in series [3] and 4 nM in series [2]. For the same compound, the GI50 at 48 h in series [4] came out at 3450 nM.

Take `CN1CCN(Cc2ccc(NC(=O)c3cc(Oc4nc(-c5cccnc5)nc5c4cnn5C)ccc3Cl)cc2C(F)(F)F)CC1`: the GI50 stood at 4170 nM in series [1] and 4020 nM in series [2].

On to `Cc1ccc(Oc2nc(-c3cccnc3)nc3c2cnn3C)cc1NC(=O)c1ccc(CN2CCN(C)CC2)c(C(F)(F)F)c1`, for which the GI50 in series [1] came out at 4170 nM; in series [2] it was 4420 nM.

With `CN1CCN(Cc2ccc(C(=O)Nc3cc(Oc4nc(-c5cccnc5)nc5[nH]ncc45)ccc3Cl)cc2C(F)(F)F)CC1`, the GI50 in series [1] amounted to 567 nM; in series [2], 1350 nM.

On to `Cc1ccc(C(=O)Nc2ccc(CN3CCN(C)CC3)c(C(F)(F)F)c2)cc1Oc1nc(-c2ccc(O)cc2)nc2c1cnn2C`, for which the GI50 in series [1] is 166 nM; in series [2], 57 nM.

Turning to `Cc1ccc(C(=O)Nc2ccc(CN3CCN(C)CC3)c(C(F)(F)F)c2)cc1Oc1nc(-c2ccncc2)nc2c1cnn2C`, the GI50 in series [1] amounted to 39 nM; in the series on BaF3 it was 220 nM; in series [3], 90 nM; in series [2], 36 nM. Also, in series [4], the GI50 at 48 h was 2620 nM.

As for `Cc1ccc(Oc2nc(-c3ccncc3)nc3c2cnn3C)cc1C(=O)Nc1ccc(CN2CCN(C)CC2)c(C(F)(F)F)c1`, the results for the GI50 in series [1] and in series [2] were 1520 nM and 440 nM, respectively.

Turning to `Cc1ccc(C(=O)Nc2ccc(CN3CCN(C)CC3)c(C(F)(F)F)c2)cc1Oc1nc(-c2ccoc2)nc2c1cnn2C`, the GI50 in series [1] was found to be 75 nM; with BaF3, 529 nM; in series [3], 290 nM; in series [2] it was 14 nM. The GI50 at 48 h in series [4] is > 10000 nM.

Regarding `COc1cc2nccc(Oc3ccc(NC(=O)C4(C(=O)Nc5ccc(F)cc5)CC4)cc3)c2cc1OC` [CABOZANTINIB], the GI50 in series [1] was 29 nM; with BaF3 it was 1000 nM; in series [3], 1210 nM. Also, the GI50 at 48 h in series [4] was 7910 nM.

The values are drawn from ChEMBL document CHEMBL4706552, “Discovery of 4-methyl-N-(4-((4-methylpiperazin- 1-yl)methyl)-3-(trifluoromethyl)phenyl)-3-((6-(pyridin-3-yl)-1H-pyrazolo[3,4-d]pyrimidin-4-yl)-oxy)benzamide as a potent inhibitor of RET and its gatekeeper mutant” (Eur J Med Chem, 2020).
